These results are taken from US12194032B2, “Method of treating focal segmental glomerulosclerosis” (ChemoCentryx, Inc., priority 2016, dated 2025).

What all share (assay type): in vivo
Assay [1] concerns 5/6 remnant kidney 129X1/SvJ mice. The assay is described as follows: 5/6 Remnant Kidney Model with Combination Treatment (Example 3). Particulars: 5/6 nephrectomized mice, compound 3 100 mg/kg subcutaneously once daily, candesartan 5 mg/kg orally once daily. The source says: (§1) The remnant kidney and the adryamicin drug-induced models are commonly used rodent models for FSGS (de Mik S M. Et al. Pathophysiology and treatment of focal segmental glomerulosclerosis: the role of animal models. BMC Nephrol. 2013 Apr. 1; 14:74). The 5/6 remnant kidney model is representative of secondary FSGS whereas the Adriamycin nephropathy model is representative of primary FSGS.
The 5/6 remnant kidney 129X1/SvJ mice was obtained from Jackson Laboratories. The mice were kept on standard chow and had free access to water. The mice surgery was performed in two stages. Under isoflurane anesthesia, two-thirds of the left kidney mass was dissected. After seven to ten days, a right unilateral nephrectomy was performed. Three to six weeks after the 5/6 nephrectomy, the mice were randomized for the study (n=12 per group). Compound 3 and its vehicle were dosed subcutaneously once daily at 100 mg/kg formulated in 1% HPMC. […]
Urine samples were collected at week one, two and three by individually housing the mice in metabolic cages for 18 hours. Urinary albumin was measured by ELISA (Bethyl Labs, Montgomery, TX), and the urinary albumin excretion rate (UAER) was calculated as micrograms per 24 hours. Urinary creatinine was measured by mass spectrometry. The albumin to creatinine ratio (ACR) was calculated as micrograms of albumin per milligram of creatinine.

Assay [2] has the same test system. The assay is described as follows: 5/6 Remnant Kidney Model (Example 1). The note with it: 5/6 nephrectomized mice.
Description: as §1
The 5/6 remnant kidney 129X1/SvJ mice was obtained from Jackson Laboratories. The mice were kept on standard chow and had free access to water. The mice surgery was performed in two stages. Under isoflurane anesthesia, two-thirds of the left kidney mass was dissected. After 7 to 10 days, a right unilateral nephrectomy was performed. Six weeks after the 5/6 nephrectomy, the mice were randomized for the study. Compound 3 and its vehicle were dosed subcutaneously once daily at 100 mg/kg formulated in 1% HPMC. 6 animals were used for each group.
Urine samples were collected at weeks one and two by individually housing the mice in metabolic cages for 18 hours. Urinary albumin was measured by ELISA (Bethyl Labs, Montgomery, TX), and the urinary albumin excretion rate (UAER) was calculated as micrograms per 24 hours. Urinary creatinine was measured by mass spectrometry. The albumin to creatinine ratio (ACR) was calculated as micrograms of albumin per milligram of creatinine. At the end of the experiments (after 2 weeks of treatment), the kidneys were collected, fixed in formalin, embedded in paraffin, and cut into 3-μm-thick sections. Sections were stained for podocytes by immunohistochemistry with Wilms tumor protein 1 antibody (Abcam, Cambridge, MA). Glomerular cross-sectional area and podocyte number were determined in 20-30 glomeruli per mouse. Glomerulus volume and podocyte density were calculated from the immunohistochemistry data using the Weibel method. Mesangial expansion was measured by silver methenamine stain on 2-μm-thick paraffin sections by conventional methods.

Assay [3] relates to Adriamycin nephropathy female Balb/c mice. The assay can be described thus: Adriamycin Nephropathy Model (Example 2). Particulars: Adriamycin 7.5 mg/kg i.v. day 0; compound 1 90 mg/kg subcutaneously once daily; candesartan orally once daily; week 1, 2 and 3; vs vehicles. The procedure: as §1
The experiment was performed in female Balb/c mice (Jackson Laboratories). The mice were kept on standard chow and had free access to water. 7.5 mg/kg Adriamycin (Selleck Chemicals) or saline (control) was injected in a tail vein in isoflurane-anesthetized animals at day 0. Compound 1 and its vehicle (1% HPMC) were dosed subcutaneously once daily at 90 mg/kg formulated in 1% HPMC. Candesartan and its vehicle (H2O) were dosed orally once daily. Twelve animals were used for each group.
[…] Urinary albumin was measured by ELISA (Bethyl Labs, Montgomery, TX), and the urinary albumin excretion rate (UAER) was calculated as micrograms per 24 hours. Urinary creatinine was measured by mass spectrometry. The albumin to creatinine ratio (ACR) was calculated as micrograms of albumin per milligram of creatinine.

The mark [4] stands for this setting: 100 mg/kg subcutaneously once daily, kidneys after 2 weeks of treatment.

Regarding `O=C(c1ncc(Cl)cc1NS(=O)(=O)c1ccc(Cl)c(C(F)(F)F)c1)c1ccnc2[nH]ccc12` [compound 3], the “UACR values (FIG. 11)” value in assay [1] (week 1 and week 2) is reported as “reduction in UACR values”. Also, in assay [1] (weeks 1, 2 and 3), the “UAER values (FIG. 10)” value is recorded as “reduction in UAER values”. Further, the “proteinuria (UACR values, FIG. 1)” value in assay [2] (100 mg/kg subcutaneously once daily in 1% HPMC, week 1 and 2, vs vehicle) was “reduces the profound proteinuria”. For the same compound, in assay [2] (setting [4]), the “number of renal interstitial macrophages (macrophage content as percentage of total area, FIG. 2)” value was “reduces the number of renal interstitial macrophages”; the “percentage of glomeruli with mesangiolysis (FIG. 6)” value was “beneficial effect”; the “podocytes numbers per glomerular cross section (FIG. 4)” value is reported as “increased podocytes numbers”.
Regarding `Cc1cnc(C(=O)c2ccnc3[nH]ccc23)c(NS(=O)(=O)c2ccc(Cl)c(C(F)(F)F)c2)c1` [compound 1], the “UACR levels (FIG. 8)” value in assay [3] is on record as “reduction in UACR levels”.
